# Source: paper PMC12332266 (Frontiers in Pharmacology, 2025)
# Structures can show the parent of a compound that is named as a salt. Where two headings read alike, the source gives them in different places.
# Key:
# [1] = test system: hiPSC-CM (iCell Cardiomyocytes^2); assay: RTCA CardioECR assessment (impedance and electrophysiology parameters); details: hiPSC-CM
# Description: (§1) Culture media change was performed every 2 days.
# After seeding on fibronectin-coated xCELLigence ePlates (Agilent Technologies, Inc. Santa Clara, CA, USA), iCell^2 CM were monitored continuously through impedance electrodes. The following impedance parameters were measured: Cell Index (CI, measure of cell “health” and monolayer integrity), beating rate (BR) and amplitude (CI Amplitude, magnitude of contraction). Electrophysiology-like parameters (Field Potential Duration (FPD), considered as a surrogate for QT in in vivo studies, and Spike Amplitude (SA), depolarization induced by Na^+ channel opening) were measured starting from day 4–6, following the monolayer formation. […] All RTCA CardioECR data were double normalized (DMSO control and the baseline) with no further statistical group comparison for the normalized parameters. The variability of the data within the treatment groups was assessed by standard deviation.
# [2] = test system: hiPSC-CM (iCell Cardiomyocytes^2); assay: Intracellular miRNA expression by RT-qPCR in hiPSC-CM pellets after 72-hour treatment
# Description: as §1
# Total RNA was extracted from hiPSC-CM using the miRNeasy 96 Kit (Qiagen, Hilden, Germany) following the manufacturer’s recommendations. After the extraction, RNA purity was assessed by NanoDrop™ 8000 Spectrophotometer (Thermo Fisher Scientific Inc.). 5–10 ng/μL of RNA per sample were reverse transcribed and pre-amplified by using the TaqMan™ Advanced miRNA cDNA Synthesis Kit (Thermo Fisher Scientific Inc.). The synthesized cDNA was used for RT-qPCR with selected TaqMan™ assays (Thermo Fischer Scientific Inc.). RT-qPCR was carried out following the Applied Biosciences TaqMan miRNA expression assay protocol on a ViiA7 instrument (Thermo Fisher Scientific, Inc.). […] Therefore, to maximize the number of drugs and concentrations, explored in the same study, we pooled the triplicates for intracellular profiling of miRNAs. Therefore, no statistical analysis was performed on the data of miRNA profiling in the pellets of hiPSC-CM.
# Following RTCA CardioECR assessment, hiPSC-CM cell pellets were collected, and total RNA was extracted and purified to investigate miRNAs upregulation by RT-qPCR. […] For the initial assessment of intracellular miRNAs in 12 different treatments, encompassing various drug classes, we used a panel of 17 miRNAs, which we selected from the publicly available data focusing mainly on in vitro models and structural cardiotoxicants (Supplementary Table S2).
# [3] = ref extensive literature search, cited from earlier work
# [4] = 72-hour treatment, Supplementary Table 1
# [5] = 72-hour treatment, change from baseline
# [6] = 72-hour treatment, lowest concentration causing at least 20% change from baseline
compound,measurement,setting,value
CC(C)C[C@H](NC(=O)CNC(=O)c1cc(Cl)ccc1Cl)B1OC(=O)C(CC(=O)O)(CC(=O)O)O1 [Ixazomib Citrate],Contractility Amplitude magnitude of effect at MEC,[1]; 72-hour treatment,-94%
same,Field Potential Duration magnitude of effect at MEC,[1]; 72-hour treatment,-35%
same,Spike Amplitude (SA) magnitude of effect at MEC,[1]; 72-hour treatment,+75%
same,Beating Rate magnitude of effect at MEC,[1]; [4],+33%
same,Cell Index magnitude of effect at MEC,[1]; [4],-37%
same,Field Potential Duration MEC,"[1]; 72-hour treatment, at least 10% change",0.03 µM
same,Contractility Amplitude MEC,"[1]; 72-hour treatment, at least 20% change",0.1 µM
same,Beating Rate MEC,"[1]; 72-hour treatment, at least 20% change, Supplementary Table 1",0.03 µM
same,Spike Amplitude (SA) MEC,"[1]; 72-hour treatment, at least 40% change",0.03 µM
same,Beating rate (BR) magnitude of effect at MEC,[1]; [5],+33%
same,Cell index (CI) magnitude of effect at MEC,[1]; [5],−37%
same,Beating rate (BR) MEC,[1]; [6],0.03 µM
same,Cell index (CI) MEC,[1]; [6],0.3 µM
same,"RTCA, MEC (BR)","[1]; change ≥20%, Table 2",0.03 µM
same,"RTCA, MEC (CI)","[1]; change ≥20%, Table 2",0.3 µM
same,"hsa-miR-7-5p fold change, intracellular","[2]; 0.03 µM, 72 h",2.0
same,"hsa-miR-29a-5p fold change, intracellular","[2]; 0.03 µM, 72 h",1.5
same,"hsa-miR-96-5p fold change, intracellular","[2]; 0.03 µM, 72 h",8.8
same,"hsa-miR-126-3p fold change, intracellular","[2]; 0.03 µM, 72 h",1.7
same,"hsa-miR-133b fold change, intracellular","[2]; 0.03 µM, 72 h",1.2
same,"hsa-miR-146b-5p fold change, intracellular","[2]; 0.03 µM, 72 h",1.0
same,"hsa-miR-182-5p fold change, intracellular","[2]; 0.03 µM, 72 h",1.4
same,"hsa-miR-185-3p fold change, intracellular","[2]; 0.03 µM, 72 h",1.0
same,"hsa-miR-187-3p fold change, intracellular","[2]; 0.03 µM, 72 h",1.1
same,"hsa-miR-208b-3p fold change, intracellular","[2]; 0.03 µM, 72 h",0.9
same,"hsa-miR-7-5p fold change, intracellular","[2]; 0.1 µM, 72 h",0.3
same,"hsa-miR-29a-5p fold change, intracellular","[2]; 0.1 µM, 72 h",2.0
same,"hsa-miR-96-5p fold change, intracellular","[2]; 0.1 µM, 72 h",6.4
same,"hsa-miR-126-3p fold change, intracellular","[2]; 0.1 µM, 72 h",1.8
same,"hsa-miR-133b fold change, intracellular","[2]; 0.1 µM, 72 h",25.3
same,"hsa-miR-146b-5p fold change, intracellular","[2]; 0.1 µM, 72 h",1.9
same,"hsa-miR-182-5p fold change, intracellular","[2]; 0.1 µM, 72 h",34.9
same,"hsa-miR-185-3p fold change, intracellular","[2]; 0.1 µM, 72 h",0.4
same,"hsa-miR-187-3p fold change, intracellular","[2]; 0.1 µM, 72 h",3.1
same,"hsa-miR-208b-3p fold change, intracellular","[2]; 0.1 µM, 72 h",0.0
same,"hsa-miR-365a-5p fold change, intracellular","[2]; 0.1 µM, 72 h",44.3
same,"hsa-miR-7-5p fold change, intracellular","[2]; 0.3 µM, 72 h",6.9
same,"hsa-miR-29a-5p fold change, intracellular","[2]; 0.3 µM, 72 h",1.7
same,"hsa-miR-96-5p fold change, intracellular","[2]; 0.3 µM, 72 h",13.0
same,"hsa-miR-126-3p fold change, intracellular","[2]; 0.3 µM, 72 h",2.7
same,"hsa-miR-133b fold change, intracellular","[2]; 0.3 µM, 72 h",0.4
same,"hsa-miR-146b-5p fold change, intracellular","[2]; 0.3 µM, 72 h",7.1
same,"hsa-miR-182-5p fold change, intracellular","[2]; 0.3 µM, 72 h",8.5
same,"hsa-miR-185-3p fold change, intracellular","[2]; 0.3 µM, 72 h",2.0
same,"hsa-miR-187-3p fold change, intracellular","[2]; 0.3 µM, 72 h",1.6
same,"hsa-miR-208b-3p fold change, intracellular","[2]; 0.3 µM, 72 h",0.8
same,"hsa-miR-365a-5p fold change, intracellular","[2]; 0.3 µM, 72 h",2.5
same,"hsa-miR-7-5p fold change, intracellular","[2]; 1 µM, 72 h",12.6
same,"hsa-miR-29a-5p fold change, intracellular","[2]; 1 µM, 72 h",4.7
same,"hsa-miR-96-5p fold change, intracellular","[2]; 1 µM, 72 h",13.4
same,"hsa-miR-126-3p fold change, intracellular","[2]; 1 µM, 72 h",3.1
same,"hsa-miR-133b fold change, intracellular","[2]; 1 µM, 72 h",0.6
same,"hsa-miR-146b-5p fold change, intracellular","[2]; 1 µM, 72 h",3.2
same,"hsa-miR-182-5p fold change, intracellular","[2]; 1 µM, 72 h",5.6
same,"hsa-miR-185-3p fold change, intracellular","[2]; 1 µM, 72 h",0.9
same,"hsa-miR-187-3p fold change, intracellular","[2]; 1 µM, 72 h",2.4
same,"hsa-miR-208b-3p fold change, intracellular","[2]; 1 µM, 72 h",0.9
same,"intracellular miRNA upregulation in hiPSC-CM, in words","[2]; 72-hour treatment, four concentrations per drug","highly upregulated hsa-miR-133b, hsa-miR-182-5pand hsa-miR-365a-5p"
same,miRNAs upregulated at the MEC overall (hiPSC-CM pellet),"[2]; fold change ≥2, 72 h","miR-126-3p, miR-29a-5p, miR-7-5p, miR-96-5p"
same,"miRNAs hiPSC-CM pellet, MEC overall","[2]; lowest concentration tested which produced miRNA upregulation (fold change ≥2), 72 h",0.03 µM
same,Cmax total,[3]; Supplementary Table 1,213 nM
same,Cmax total,[3]; Table 1,210 nM
